Laboratory results from publication PMC9887206, “Cationic biopolymer decorated Asiatic Acid and Centella asiatica extract incorporated liposomes for treating early-stage Alzheimer’s disease: An In-vitro and In-vivo investigation” (F1000Research, 2022).

Assays:
[1] = rat p.o; cited from earlier work
[2] = In-vitro drug release, Franz diffusion cell with dialysis membrane; assay type: physicochemical; conditions: in around 10 hours
Method: The % drug release from CLCAE and CLAA were measured through Franz diffusion cell using sigma dialysis membrane and the release rate was compared with AA and CAE. 1 mL sample (100 mg/mL) was kept on one side, while the other part of the membrane was filled with the acidic buffer pH 1.2 (200 mL) dissolution media for two hours. It was then replaced with phosphate buffer pH 7.2 (2–24 hours) with 0.25% w/v sodium lauryl sulphate as two separate media to simulate the stomach and intestinal conditions. The media were sustained at the temperature of 37°C on a magnetic stirrer. A 5 mL sample was withdrawn with the specific intervals and the condition of the sink was kept constant by refilling the same volume of media. Samples were analysed and compared using RP-HPLC at 210 nm. To assess the drug release strategy from the optimised CLAA, the data were fitted to various in vitro kinetic release models like Korsmeyer-Peppas, Higuchi, Zero and First Order models. ^, [36]

[3] = cited from earlier work
[4] = In-vitro antioxidant activity (DPPH inhibition); assay type: biochemical; conditions: at 50 μg/mL, n ≥ 3
Method: The prepared formulations' and AA's abilities to neutralise free radicals were determined in vitro and compared with standard ascorbic acid. In this method, free radical DPPH (2,2-diphenyl-1-picrylhydrazyl) was selected as described by Jamuna S. et al. 1.5 mL of 0.1mM free radial DPPH was treated with 3.5mL of 10 to 50 μg/mL concentrated methanolic solution of AA, CAE, optimised CLCAE, and CLAA. The absorbance of all the samples was measured at 518 nm through ELISA plate reader (version AM-2100, USA). The percentage of DPPH inhibition was measured through the formula. %Inhibition of DPPH=Absorptioncontrol−Absorptionsample/Absorptioncontrol×100

[5] = Ex vivo drug permeation, non-everted gut sac; assay type: in vitro ADME, rats; conditions: throughout 8 hours, non-everted rat intestinal sac
Method: The drug intestinal permeation studies of both the optimised formulations were determined using non-everted gut sac procedure. ^, [40] The rats were sacrificed and small intestine was treated with oxygenated saline. The intestine was split into […] sacs that were 8 cm long and loaded with optimised CLCAE and CLAA (~100 mg AA). The thread was used to bind the sac's ends and located in a conical flask filled with ringer’s solution of pH 9 (10 ml). 37°C temperature was kept constant in a water bath shaker at 75 rpm with 5% CO 2 aeration. Every 20 min, for a maximum of 8 h, the samples were removed and substituted with the fresh media. RP-HPLC was used to analyse the screened sample.

[6] = Oral bioavailability study, AA in rat serum; assay type: in vivo, wistar rats
Method: The sum of drug availability after oral intake of AA, CLCAE, and CLAA was performed on three groups of 150-200g wistar rats (n=6). Prior to the procedure, the animals underwent an overnight fast with unlimited access to water. Group I was treated with a single dose of AA (100 mg/kg,p.o.) whereas group II, and III animals received single dose of optimised CLCAE and CLAA (~100 mg/k.g AA, p.o.), respectively. After the dosing, the animals were partially anesthetised using […], from the retro-orbital plexus 1 mL of blood samples were collected in centrifuge tubes at a predetermined time of up to 8 h. To isolate the contents, the serum sample was spun up at 3000 rpm for 10 min. The AA was quantified by RP-HPLC.
Initially, the mixture of 1 mL serum and 5 mL methanol were taken in a volumetric flask at room temperature. The sample was properly mixed before being heated for 30 min at 55°C. After that, a 10 mL flask was made up with methanol and centrifugation for 30 min at 5000 rpm (Remi Elektrotechnik Ltd. India). 20 μL of filtered supernatant was taken for analysis.
Depends on plasma concentration-time curve parameters, the C max and T max of CLCAE and CLAA were analysed. The pharmacokinetic parameters were successfully interpreted through PK/PD computer software version 4.1, USA, which includes measurement drug plasma concentration from zero to last measured sample (AUC 0 -t) and from zero to infinity (AUC 0-∞) measurement of drug elimination half-life (K 1/2el) and elimination rate constant (K el) clearance (Cl) and volume of distribution (V d). The relative bioavailability (F) of both the formulations was determined using the following formula. F=Total amount of drug absorbed from formulation(Amaxformulation)/Total amount of drug absorbed from pureAAAmaxpureAA×100 F=VdXKelXAUC0−∞formulation/VdXKelXAUC0−∞pureAA×100

[7] = Wistar, single oral dose ~100 mg/kg AA

Structure (SMILES)	LD50 [1] [g/kg]	In vitro drug release [2] [%]	Solubility in water [3]	BCS class ([3]; poor aqueous solubility and permeability)	Percentage of inhibition of DPPH [4] [%]	Amount of drug permeated (ex vivo) [5] [%]	Tmax ([6]; Wistar, 100 mg/kg, single oral dose, read-out: Time of maximum serum concentration) [h]	AUC(0-t) [6, 7] [ng·h/mL]	Cmax [6, 7] [ng/mL]	half-life ([6]; Wistar, single oral dose ~100 mg/kg AA, read-out: Elimination half-life (t1/2el) (converted)) [min]	k el ([6]; Wistar, single oral dose ~100 mg/kg AA, read-out: Elimination rate constant (Kel) (converted)) [s⁻¹]	Maximum serum concentration ([6]; single oral dose) [µg/mL]	Clearance (Cl) ([6]; single oral dose ~100 mg/kg AA) [L h ^−1]	Volume of distribution (Vd) ([6]; single oral dose ~100 mg/kg AA) [L]
ClCCl [dichloromethane]	1.2													
C[C@H]1[C@H](C)CC[C@]2(C(=O)O)CC[C@]3(C)C(=CC[C@@H]4[C@@]5(C)C[C@@H](O)[C@H](O)[C@@](C)(CO)[C@@H]5CC[C@]43C)[C@H]12 [AA, Asiatic acid]		65.34	insoluble in water	BCS IV	65.4 ±1.2	30.90	4	40500 ± 1160	3430 ± 120	118 ± 6	0.000142	3.43 ± 0.12	0.55 ± 0.002	1.62 ± 0.26
O=C1O[C@H]([C@@H](O)CO)C(O)=C1O [ascorbic acid, reference compound]					90.75 ± 1.45									
